Experimental data published in ChEMBL document CHEMBL3351607, “Derivatives of imidazotriazine and pyrrolotriazine C-nucleosides as potential new anti-HCV agents” (Bioorg Med Chem Lett, 2014).

Legend:
[1] = Cytotoxicity against human HuH7 cells; assay type: cell-based, Huh-7
[2] = system: Hepatitis C virus; assay: Antiviral activity against Hepatitis C virus genotype 1b in human HuH7 cells assessed as inhibition of viral replication after 72 hrs by luciferase reporter assay; assay type: functional, cell-based, Hepacivirus hominis; conditions: Huh-7, 72 h
[3] = Therapeutic index, ratio of CC50 for human HuH7 cells to EC50 for Hepatitis C virus genotype 1b in human HuH7 cells; assay type: cell-based, Huh-7; conditions: read-out: Ratio CC50/EC50

SMILES | CC50 [1] [µM] | EC50 [2] [µM] | selectivity ratio [3]
C[C@@]1(O)[C@H](O)[C@@H](CO)O[C@H]1c1cnc2c(N)ncnn12 | 26 | – | –
C[C@@]1(O)[C@H](O)[C@@H](CO)O[C@H]1c1ccc2c(N)ncnn12 | > 100 | – | –
C[C@@]1(O)[C@H](O)[C@@H](CO)O[C@H]1c1cc(F)c2c(N)ncnn12 | > 100 | 3.1 | > 30
C[C@@]1(O)[C@H](O)[C@@H](CO)O[C@H]1c1cc(Cl)c2c(N)ncnn12 | 6.5 | 0.26 | –
C[C@@]1(O)[C@H](O)[C@@H](CO)O[C@H]1c1cc(C#N)c2c(N)ncnn12 | 22.1 | 0.99 | –
C[C@@]1(O)[C@H](O)[C@@H](CO)O[C@H]1c1cc(C(N)=O)c2c(N)ncnn12 | 0.37 | 0.0062 | –
C#Cc1cc([C@@H]2O[C@H](CO)[C@@H](O)[C@@]2(C)O)n2ncnc(N)c12 | 0.93 | 0.17 | –
C[C@@]1(O)[C@H](O)[C@@H](CO)O[C@H]1c1cc(-c2ncco2)c2c(N)ncnn12 | 35.7 | 1.8 | –
C[C@@]1(O)[C@H](O)[C@@H](CO)O[C@H]1c1cc(-c2ncc[nH]2)c2c(N)ncnn12 | 27.1 | 0.69 | –
C[C@@]1(O)[C@H](O)[C@@H](CO)O[C@H]1c1c(F)cc2c(N)ncnn12 | > 100 | > 50 | –
C[C@@]1(O)[C@H](O)[C@@H](CO)O[C@H]1c1ccc2c(N)nc(N)nn12 | > 100 | > 50 | –
C[C@@]1(O)[C@H](O)[C@@H](CO)O[C@H]1c1cnc2c(N)nc(Cl)nn12 | > 100 | > 50 | –
C[C@@]1(O)[C@H](O)[C@@H](CO)O[C@H]1c1cnc2c(N)nc(F)nn12 | > 100 | > 50 | –
C[C@@]1(O)[C@H](O)[C@@H](CO)O[C@H]1c1cnc2c(N)nc(N)nn12 | > 100 | > 50 | –
